Assay results reported in PubChem BioAssay AID651894 (Broad Institute, 2012).

Test system: T. b. rhodesiense STIB900 bloodstream, Alamar blue, 72 h
Assay: T. b. rhodesiense proliferation inhibition, dose response, STIB900 strain, plate reader, dry powder (AID 651894)

For `C[C@@H]1CN([C@@H](C)CO)C(=O)c2cccc(NC(=O)c3ccncc3)c2O[C@H]1CN(C)Cc1ccc(Oc2ccccc2)cc1`, the IC50 was 170 nM.
